The text below walks through data of US7276527B2, “5-pyridyl-1,3-azole compounds, process for producing the same and use thereof” (Takeda Pharmaceutical Company Limited, priority 1999, dated 2007).

This assay deals with T1, human adenosine A3 receptor (Homo sapiens, UniProt P0DMS8).
T1 construct: expressed in transfected cells; membrane fraction
T1 sequence (P0DMS8 1-318): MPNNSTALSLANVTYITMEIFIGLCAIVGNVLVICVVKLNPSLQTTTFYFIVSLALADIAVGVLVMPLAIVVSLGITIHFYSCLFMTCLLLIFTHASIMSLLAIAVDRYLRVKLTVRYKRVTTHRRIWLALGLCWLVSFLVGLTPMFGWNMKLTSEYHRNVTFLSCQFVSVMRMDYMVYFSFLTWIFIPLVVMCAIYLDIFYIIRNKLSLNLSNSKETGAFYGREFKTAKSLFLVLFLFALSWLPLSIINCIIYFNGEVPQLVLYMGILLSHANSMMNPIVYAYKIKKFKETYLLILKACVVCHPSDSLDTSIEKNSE
The assay can be described thus: Adenosine A3 receptor binding test. Particulars: membrane fraction of A3AR/CHO strain, [3H]-NECA 10 nM, room temperature 1 hour; read-out: IC50 (concentration necessary for decreasing an amount of binding of [3H]-NECA to the membrane fraction by 50%). The method, then: Genetic procedures were according to a method described in Molecular Cloning, published by Cold Spring Harbor, Laboratory, 1989 or a method described in the attached protocol of the reagent.
1) Cloning of Human Adenosine A3 Receptor
Cloning of an adenosine A3 receptor gene was performed from human brain cDNA by a PCR method. A PCR reaction was performed with a DNA thermal cycler 480 (Perkin Elmer) by using 1 ng of brain cDNA (Toyobo, QUICK-Clone cDNA) as a template, adding each 50 pmol of a primer set 5′-[…]-3′ (SEQ ID NO: 1) and 5′-[…]-3′ (SEQ ID NO: 2) made by reference to adenosine A3 receptor gene base sequence reported by Salvatore et al. (Proc. Natl. Acad. Sci. U.S.A., 90:10365-10369, 1993) and employing Takara LA PCR Kit Ver. 2 (Takara Shuzo) (reaction conditions: 35 cycles of 1 minute at 95° C., 1 minute at 66° C., 2 minutes at 75° C.). The resulting PCR product was subjected to agarose gel electrophoresis and 1.0 kb of DNA fragment was recovered and, thereafter, an adenosine A3 receptor gene was cloned using Original TA Cloning Kit (Funakoshi).
Next, the resulting plasmid was digested with a restriction enzyme XbaI (Takara Shuzo), treated with T4 DNA polymerase (Takara Shuzo) into end-blunted fragments and further digested with SalI (Takara Shuzo) to obtain adenosine A3 receptor gene fragments.
2) Preparation of a Plasmid for Expressing of Human Adenosine A3 Receptor […]

Molecules are shown by their SMILES.

As to `Cc1cc(C)cc(-c2nc(N)sc2-c2ccnc(OCc3ccccc3)c2)c1` [Example 1, [4-(3,5-dimethylphenyl)-5-(2-phenylmethyloxy-4-pyridyl)-1,3-thiazol-2-yl]amine], the IC50 was 11.6 nM.
